Results as given in patent US12251387B2, “Substituted quinoxalines and benzo[c][1,2,5]oxadiazoles as DNA-PK inhibitors” (Vertex Pharmaceuticals Incorporated, priority 2013, dated 2025).
Read-outs that look alike come from different tables or passages of the source.

Target: DNA-PK (Homo sapiens, UniProt P78527)
Assay: DNA-PK Inhibition Assay (standard radiometric kinase assay, 33P-ATP, peptide substrate)
Format: biochemical
Method: Compounds were screened for their ability to inhibit DNA-PK kinase using a standard radiometric assay. Briefly, in this kinase assay the transfer of the terminal ^33P-phosphate in ^33P-ATP to a peptide substrate is interrogated. The assay was carried out in 384-well plates to a final volume of 50 μL per well containing approximately 6 nM DNA-PK, 50 mM HEPES (pH 7.5), 10 mM MgCl2, 25 mM NaCl, 0.01% BSA, 1 mM DTT, 10 μg/mL sheared double-stranded DNA (obtained from Sigma), 0.8 mg/mL DNA-PK peptide (Glu-Pro-Pro-Leu-Ser-Gln-Glu-Ala-Phe-Ala-Asp-Leu-Trp-Lys-Lys-Lys, obtained from American Peptide), and 100 μM ATP. Accordingly, compounds of the invention were dissolved in DMSO to make 10 mM initial stock solutions. Serial dilutions in DMSO were then made to obtain the final solutions for the assay. A 0.75 μL aliquot of DMSO or inhibitor in DMSO was added to each well, followed by the addition of ATP substrate solution containing ^33P-ATP (obtained from Perkin Elmer). The reaction was started by the addition of DNA-PK, peptide and ds-DNA. After 45 min, the reaction was quenched with 25 μL of 5% phosphoric acid. The reaction mixture was transferred to MultiScreen HTS 384-well PH plates (obtained from Millipore), allowed to bind for one hour, and washed three times with 1% phosphoric acid. Following the addition of 50 μL of Ultima Gold™ high efficiency scintillant (obtained from Perkin Elmer), the samples were counted in a Packard TopCount NXT Microplate Scintillation and Luminescence Counter (Packard BioScience). The Ki values were calculated using Microsoft Excel Solver macros to fit the data to the kinetic model for competitive tight-binding inhibition.

[1] = radiometric assay, approximately 6 nM DNA-PK, 100 μM ATP, 45 min, fit to competitive tight-binding inhibition, read-out: Ki for the inhibition of DNA-PK

Structure (SMILES)	Ki [1]	Ki
Clc1cncc(N[C@H]2CC[C@@H](Oc3cc(N4CCOCC4)cc4nccnc34)CC2)n1 [Compound 374]	< 100 nM	–
OCCN1CCN(c2cc(N[C@H]3CC[C@@H](Oc4cc(N5CCOCC5)cc5nccnc45)CC3)ncn2)CC1 [Compound 499]	< 100 nM	–
COc1cc(N[C@H]2CC[C@@H](Oc3cc(N4CCOCC4)cc4nccnc34)CC2)nc(N(C)C)n1 [Compound 553]	< 100 nM	–
CC(C)(O)CNc1ncnc(N[C@H]2CC[C@@H](Oc3cc(N4CCOCC4)cc4nccnc34)CC2)c1F [Compound 377]	< 100 nM	–
CN(C)CCOc1ncnc(N[C@H]2CC[C@@H](Oc3cc(N4CCOCC4)cc4nccnc34)CC2)c1F [Compound 362]	< 100 nM	–
Fc1nc(N[C@H]2CC[C@@H](Oc3cc(N4CCOCC4)cc4nccnc34)CC2)c2nc[nH]c2n1 [Compound 521]	< 100 nM	–
CNC(=O)c1cc(N[C@H]2CC[C@@H](Oc3cc(N4CCOCC4)cc4nccnc34)CC2)ncn1 [Compound 360]	< 100 nM	–
c1ncc(N[C@H]2CC[C@@H](Oc3cc(N4CCOCC4)cc4nccnc34)CC2)cn1 [Compound 575]	< 100 nM	–
c1cnc2nc(N[C@H]3CC[C@@H](Oc4cc(N5CCOCC5)cc5nccnc45)CC3)sc2c1 [Compound 330]	< 100 nM	–
COc1ccc(N[C@H]2CC[C@@H](Oc3cc(N4CCOCC4)cc4nccnc34)CC2)cn1 [Compound 447]	< 100 nM	–
Cc1nc(N[C@H]2CC[C@@H](Oc3cc(N4CCOCC4)cc4nccnc34)CC2)cc(N(C)C)n1 [Compound 602]	< 100 nM	–
CNC(=O)c1ccnc(N[C@H]2CC[C@@H](Oc3cc(N4CCOCC4)cc4nccnc34)CC2)n1 [Compound 350]	< 100 nM	–
c1cnc2c(O[C@H]3CC[C@@H](Nc4ncc(C5CCNC5)cn4)CC3)cc(N3CCOCC3)cc2n1 (stereo partly shown) [Compound 569]	< 100 nM	–
c1cnc2c(O[C@H]3CC[C@@H](Nc4ncc(CCN5CCCCC5)cn4)CC3)cc(N3CCOCC3)cc2n1 [Compound 433]	< 100 nM	–
Cc1cnc(N[C@H]2CC[C@@H](Oc3cc(N4CCOCC4)cc4nccnc34)CC2)c(C)n1 [Compound 323]	< 100 nM	–
Cc1ncccc1N[C@H]1CC[C@@H](Oc2cc(N3CCOCC3)cc3nccnc23)CC1 [Compound 442]	< 100 nM	–
OCc1ccnc(N[C@H]2CC[C@@H](Oc3cc(N4CCOCC4)cc4nccnc34)CC2)n1 [Compound 457]	< 100 nM	–
CNc1ncc(OC)c(N[C@H]2CC[C@@H](Oc3cc(N4CCOCC4)cc4nccnc34)CC2)n1 [Compound 387]	< 100 nM	–

Structure (SMILES)	Ki [1]	Ki
ClCCN1CCC(c2cnc(N[C@H]3CC[C@@H](Oc4cc(N5CCOCC5)cc5nccnc45)CC3)nc2)CC1 [Compound 522]	–	< 100 nM
Cc1nccc(N[C@H]2CC[C@@H](Oc3cc(N4CCO[C@H](C)C4)cc4nccnc34)CC2)n1 [Compound 290]	< 100 nM	–
CN1CCN(C(=O)c2cnc(N[C@H]3CC[C@@H](Oc4cc(N5CCOCC5)cc5nccnc45)CC3)nc2)CC1 [Compound 337]	< 100 nM	–
FC(F)(F)c1cc(N[C@H]2CC[C@@H](Oc3cc(N4CCOCC4)cc4nccnc34)CC2)ncn1 [Compound 417]	< 100 nM	–
c1cnc2c(O[C@H]3CC[C@@H](Nc4ncnc5ccoc45)CC3)cc(N3CCOCC3)cc2n1 [Compound 488]	< 100 nM	–
Clc1nc(N[C@H]2CC[C@@H](Oc3cc(N4CCOCC4)cc4nccnc34)CC2)nc2[nH]ccc12 [Compound 501]	< 100 nM	–
Cc1nccc(N[C@H]2CC[C@@H](Oc3cc(C4=CCOC4)cc4nccnc34)CC2)n1 [Compound 289]	< 100 nM	–
c1cnc2c(O[C@H]3CC[C@@H](Nc4ncc(OCCCN5CCOCC5)cn4)CC3)cc(N3CCOCC3)cc2n1 [Compound 526]	< 100 nM	–
Cn1nc(N[C@H]2CC[C@@H](Oc3cc(N4CCOCC4)cc4nccnc34)CC2)c2cccnc21 [Compound 329]	< 100 nM	–
CNc1nc(N[C@H]2CC[C@@H](Oc3cc(N4CCOCC4)cc4nccnc34)CC2)ncc1F [Compound 482]	< 100 nM	–
Cc1cccnc1N[C@H]1CC[C@@H](Oc2cc(N3CCOCC3)cc3nccnc23)CC1 [Compound 586]	< 100 nM	–
COCc1ccnc(N[C@H]2CC[C@@H](Oc3cc(N4CCOCC4)cc4nccnc34)CC2)c1 [Compound 582]	< 100 nM	–
O=C(N[C@H]1CC[C@@H](Oc2cc(N3CCOCC3)cc3nccnc23)CC1)N1CCOCC1 [Compound 412]	< 100 nM	–
Clc1nc(N[C@H]2CC[C@@H](Oc3cc(N4CCOCC4)cc4nccnc34)CC2)c2cn[nH]c2n1 [Compound 423]	< 100 nM	–
CN(C)CCOc1ccc(N[C@H]2CC[C@@H](Oc3cc(N4CCOCC4)cc4nccnc34)CC2)nc1 [Compound 654]	< 100 nM	–
FC(F)(F)c1cccc(N[C@H]2CC[C@@H](Oc3cc(N4CCOCC4)cc4nccnc34)CC2)n1 [Compound 587]	< 100 nM	–
COc1c(N[C@H]2CC[C@@H](Oc3cc(N4CCOCC4)cc4nccnc34)CC2)ncnc1N(C)C [Compound 388]	< 100 nM	–

The next lines start with results.

Ki [1]	Structure (SMILES)	Ki
< 100 nM	Cc1cc(C)n2nc(N[C@H]3CC[C@@H](Oc4cc(N5CCOCC5)cc5nccnc45)CC3)nc2n1 [Compound 299]	–
< 100 nM	COCc1cc(N[C@H]2CC[C@@H](Oc3cc(N4CCOCC4)cc4nccnc34)CC2)nc(C)n1 [Compound 616]	–
< 100 nM	c1nc2c(c(N[C@H]3CC[C@@H](Oc4cc(N5CCOCC5)cc5nccnc45)CC3)n1)COC2 [Compound 475]	–
< 100 nM	O=Cc1cnc2cc(N3CCOCC3)cc(O[C@H]3CC[C@@H](Nc4ncccn4)CC3)c2n1 [Compound 620]	–
< 100 nM	FC(F)(F)c1cccnc1N[C@H]1CC[C@@H](Oc2cc(N3CCOCC3)cc3nccnc23)CC1 [Compound 593]	–
< 100 nM	CNC(=O)c1cc(N[C@H]2CC[C@@H](Oc3cc(C4=CCOCC4)cc4nccnc34)CC2)ncn1 [Compound 321]	–
< 100 nM	Cc1nccnc1N[C@H]1CC[C@@H](Oc2cc(N3CCOCC3)cc3nccnc23)CC1 [Compound 335]	–
< 100 nM	c1cnc2c(O[C@H]3CC[C@@H](Nc4cc5ncnn5cn4)CC3)cc(N3CCOCC3)cc2n1 [Compound 510]	–
< 100 nM	Cn1nnc(-c2cnc(N[C@H]3CC[C@@H](Oc4cc(N5CCOCC5)cc5nccnc45)CC3)nc2)n1 [Compound 458]	–
< 100 nM	CN1CCN(CCOc2ccc(N[C@H]3CC[C@@H](Oc4cc(N5CCOCC5)cc5nccnc45)CC3)nc2)CC1 [Compound 655]	–
< 100 nM	O=C(O)c1cc(N[C@H]2CC[C@@H](Oc3cc(N4CCOCC4)cc4nccnc34)CC2)ccc1F [Compound 420]	–
< 100 nM	Cc1noc(-c2ccc(N[C@H]3CC[C@@H](Oc4cc(N5CCOCC5)cc5nccnc45)CC3)nc2)n1 [Compound 278]	–
< 100 nM	Cc1ncnc(N[C@H]2CC[C@@H](Oc3cc(N4CCOCC4)cc4nccnc34)CC2)c1C [Compound 491]	–
< 100 nM	CN(C)CCOc1ccnc(N[C@H]2CC[C@@H](Oc3cc(N4CCOCC4)cc4nccnc34)CC2)n1 [Compound 559]	–
< 100 nM	COc1cc(N[C@H]2CC[C@@H](Oc3cc(N4CCOCC4)cc4nccnc34)CC2)ccn1 [Compound 440]	–
< 100 nM	CN1CCN(c2ccc(N[C@H]3CC[C@@H](Oc4cc(N5CCOCC5)cc5nccnc45)CC3)nc2)CC1 [Compound 626]	–
< 100 nM	CN1CCN(c2nccc(N[C@H]3CC[C@@H](Oc4cc(N5CCOCC5)cc5nccnc45)CC3)n2)CC1 [Compound 535]	–
< 100 nM	Cc1ncc(N[C@H]2CC[C@@H](Oc3cc(N4CCOCC4)cc4nccnc34)CC2)c(C)n1 [Compound 449]	–
< 100 nM	Cc1ncc(N)c(N[C@H]2CC[C@@H](Oc3cc(N4CCOCC4)cc4nccnc34)CC2)n1 [Compound 369]	–
< 100 nM	CN1CCC(NC(=O)N[C@H]2CC[C@@H](Oc3cc(N4CCOCC4)cc4nccnc34)CC2)CC1 [Compound 363]	–
< 100 nM	COCCOc1ccnc(N[C@H]2CC[C@@H](Oc3cc(N4CCOCC4)cc4nccnc34)CC2)n1 [Compound 558]	–
< 100 nM	Cc1cncc(N[C@H]2CC[C@@H](Oc3cc(N4CCOCC4)cc4nccnc34)CC2)c1 [Compound 465]	–
< 100 nM	COc1nc(N[C@H]2CC[C@@H](Oc3cc(N4CCOCC4)cc4nccnc34)CC2)nc(OC)n1 [Compound 608]	–
< 100 nM	CC(C)(C)NC(=O)N[C@H]1CC[C@@H](Oc2cc(N3CCOCC3)cc3nccnc23)CC1 [Compound 425]	–
< 100 nM	O=C1Cc2cnc(N[C@H]3CC[C@@H](Oc4cc(N5CCOCC5)cc5nccnc45)CC3)nc2N1 [Compound 552]	–
< 100 nM	OCc1cccnc1N[C@H]1CC[C@@H](Oc2cc(N3CCOCC3)cc3nccnc23)CC1 [Compound 584]	–
< 100 nM	c1cnc2c(O[C@H]3CC[C@@H](Nc4ncnc5occc45)CC3)cc(N3CCOCC3)cc2n1 [Compound 518]	–
< 100 nM	COc1cc(N[C@H]2CC[C@@H](Oc3cc(N4CCOCC4)cc4nccnc34)CC2)nc(C)n1 [Compound 659]	–
< 100 nM	CCN(CC)C(=O)N[C@H]1CC[C@@H](Oc2cc(N3CCOCC3)cc3nccnc23)CC1 [Compound 413]	–
